From PubChem BioAssay (NCI)
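In this assay, cells in 96-well plates receive the compound at five concentrations for 48 hours. Endpoints are linearly interpolated between the surrounding concentrations. At the TGI there is no net growth.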

Columns and labels:
Assay in all cases: NCI-60 cell line screen, 48 h
ACHN renal = test system: ACHN renal
HCT-116 colon = test system: HCT-116 colon
HT29 colon = test system: HT29 colon
KM12 colon = test system: KM12 colon
MDA-MB-231 breast = test system: MDA-MB-231 breast
NCI-H23 lung = test system: NCI-H23 lung
NCI/ADR-RES ovarian = test system: NCI/ADR-RES ovarian
OVCAR-4 ovarian = test system: OVCAR-4 ovarian
RPMI-8226 leukemia = test system: RPMI-8226 leukemia
RXF 393 renal = test system: RXF 393 renal
SK-MEL-2 melanoma = test system: SK-MEL-2 melanoma
SK-MEL-28 melanoma = test system: SK-MEL-28 melanoma
HL-60(TB) leukemia = test system: HL-60(TB) leukemia
SR leukemia = test system: SR leukemia

SMILES	TGI (ACHN renal)	TGI (HCT-116 colon)	TGI (HT29 colon)	TGI (KM12 colon)	TGI (MDA-MB-231 breast)	TGI (NCI-H23 lung)	TGI (NCI/ADR-RES ovarian)	TGI (OVCAR-4 ovarian)	TGI (RPMI-8226 leukemia)	TGI (RXF 393 renal)	TGI (SK-MEL-2 melanoma)	TGI (SK-MEL-28 melanoma)	TGI (HL-60(TB) leukemia)	TGI (SR leukemia)
NC1=CC(C(=O)c2ccncc2)c2nc3ccccc3nc21 (configuration not stated)	> 100 µM	> 100 µM	> 100 µM	> 100 µM	> 100 µM	> 100 µM	> 100 µM	> 100 µM	> 100 µM	> 100 µM	> 100 µM	> 100 µM	–	–
COc1ccc(Nc2nc(N)c(C(=O)c3ccc(OC)cc3)s2)cc1	–	> 28.9 µM	> 48.5 µM	–	> 72.4 µM	> 93.4 µM	> 100 µM	> 100 µM	0.659 µM	4.55 µM	> 55.4 µM	> 68.6 µM	0.802 µM	–
CO[C@@](c1ccccc1)(c1nc(C#N)c(N)o1)C(F)(F)F	> 100 µM	> 100 µM	–	> 100 µM	> 100 µM	> 100 µM	> 100 µM	> 100 µM	> 100 µM	> 100 µM	> 100 µM	> 100 µM	–	–
COc1ccc2c(c1)N(C(C)=O)CN1C(=O)CCC21 (configuration not stated)	> 100 µM	> 100 µM	> 100 µM	> 100 µM	> 100 µM	> 100 µM	> 100 µM	> 100 µM	> 100 µM	> 100 µM	> 100 µM	> 100 µM	> 100 µM	–
O=C(O)c1cc(-c2ccccc2O)nc2ccccc12	> 100 µM	> 100 µM	> 100 µM	> 100 µM	–	> 100 µM	–	> 100 µM	> 100 µM	–	> 100 µM	> 100 µM	–	–
NC12CC3CC(C1)CC(Cl)(C3)C2	> 100 µM	> 100 µM	> 100 µM	> 100 µM	–	> 100 µM	–	–	> 100 µM	> 100 µM	> 100 µM	> 100 µM	> 100 µM	–
COc1cc2c(cc1OC)C1C(O)C(OC)C=C3CC[N+](C)(C2)C31 (configuration not stated)	> 100 µM	> 100 µM	> 100 µM	> 100 µM	> 100 µM	> 100 µM	> 100 µM	> 100 µM	> 100 µM	> 100 µM	> 100 µM	> 100 µM	> 100 µM	–
CN(C)c1ncnc2c1ncn2C1C=CC(COS(N)(=O)=O)C1 (configuration not stated)	> 100 µM	> 100 µM	> 100 µM	> 100 µM	–	> 100 µM	> 100 µM	> 100 µM	> 100 µM	> 100 µM	> 100 µM	> 100 µM	> 100 µM	> 100 µM
COC1=CC(C2c3cc4c(cc3[C@@H](Nc3ccc([N+](=O)[O-])cc3)C3COC(=O)[C@H]23)OCO4)=CC(=O)C1=O (some centres not stated)	4.43 µM	27.5 µM	35.8 µM	26.4 µM	–	4.68 µM	–	> 100 µM	> 100 µM	86.8 µM	92 µM	> 94.8 µM	–	–
Cc1cc(NC(=O)C(=O)Cc2cnc3ccccc3n2)c(S(=O)(=O)O)cc1Cl	> 100 µM	> 100 µM	> 100 µM	> 100 µM	> 100 µM	> 100 µM	> 100 µM	> 100 µM	> 100 µM	–	> 100 µM	> 100 µM	> 100 µM	–
CC1=CCC[C@@](C)(O)[C@@H]2C[C@H]3C(CSc4ccccc4)C(=O)O[C@H]3[C@@H](O2)[C@H](C)CCC1 (some centres not stated)	25.5 µM	> 100 µM	–	22.6 µM	> 100 µM	33.8 µM	–	45 µM	84 µM	30.4 µM	32.3 µM	52.9 µM	> 100 µM	> 100 µM
COc1cccc(/C(C=O)=C(\Cl)c2ccc(OC)c(OC)c2)c1	26.4 µM	22.5 µM	27.5 µM	29.1 µM	–	24.9 µM	–	39.1 µM	48.8 µM	25.1 µM	42.8 µM	29 µM	20.7 µM	82.1 µM
O=C1/C(=C/c2ccc(Cl)cc2)NC(=S)N1CN1CCOCC1	> 100 µM	> 100 µM	> 100 µM	> 100 µM	> 100 µM	> 100 µM	> 100 µM	> 100 µM	> 100 µM	–	> 100 µM	> 100 µM	–	–
CC(=O)OC1OC2C(NC(=O)OC(C)(C)C)C1CC2(OCc1ccccc1)OCc1ccccc1 (configuration not stated)	80 µM	31.6 µM	> 100 µM	71.5 µM	–	41.7 µM	–	–	43.3 µM	32.2 µM	38.9 µM	57.2 µM	35.2 µM	> 100 µM
O=C1Nc2ccccc2[C@]12C[C@H]2c1ccccn1	> 100 µM	> 100 µM	–	> 100 µM	> 100 µM	> 100 µM	> 100 µM	> 100 µM	> 100 µM	> 100 µM	> 100 µM	> 100 µM	–	–
NC(=O)c1csc(CCCCCCc2nc(C(N)=O)cs2)n1	> 100 µM	> 100 µM	> 59.8 µM	> 100 µM	–	> 100 µM	–	> 100 µM	> 71.4 µM	> 100 µM	> 100 µM	> 100 µM	> 100 µM	> 100 µM
Nc1nc(N)nc(-c2cnccn2)n1	> 100 µM	> 100 µM	–	> 100 µM	> 100 µM	> 100 µM	> 100 µM	–	–	> 100 µM	> 100 µM	> 100 µM	–	> 100 µM
CCOc1ccc(N/C(=C(/C(Cl)=C(/Cl)NCCO)[N+](=O)[O-])n2nnc3ccccc32)cc1	48.4 µM	> 100 µM	85.3 µM	> 100 µM	63.8 µM	33 µM	64 µM	> 100 µM	> 100 µM	31.7 µM	> 100 µM	37.7 µM	–	–
NC(=O)C(=CN1C(=O)CC(=O)NC1=S)C(N)=O	> 100 µM	> 100 µM	> 100 µM	> 100 µM	> 100 µM	> 100 µM	> 100 µM	> 100 µM	–	> 100 µM	> 100 µM	> 100 µM	> 100 µM	–

SMILES	TGI (ACHN renal)	TGI (HCT-116 colon)	TGI (HT29 colon)	TGI (KM12 colon)	TGI (MDA-MB-231 breast)	TGI (NCI-H23 lung)	TGI (NCI/ADR-RES ovarian)	TGI (OVCAR-4 ovarian)	TGI (RPMI-8226 leukemia)	TGI (RXF 393 renal)	TGI (SK-MEL-2 melanoma)	TGI (SK-MEL-28 melanoma)	TGI (HL-60(TB) leukemia)	TGI (SR leukemia)
Cn1cnc2c(OCC3CCCCC3)nc(N)nc21	> 100 µM	> 100 µM	> 100 µM	> 100 µM	> 100 µM	> 100 µM	> 100 µM	> 100 µM	> 100 µM	> 100 µM	> 100 µM	> 100 µM	> 100 µM	–
CN(C)CCCSc1c2ccccc2nc2cc(NCC(=O)Nc3ccccc3-c3ccccc3NC(=O)CNc3ccc4c(SCCCN(C)C)c5ccccc5nc4c3)ccc12	> 100 µM	> 100 µM	> 100 µM	> 100 µM	–	> 100 µM	–	> 100 µM	> 100 µM	> 100 µM	> 100 µM	> 100 µM	50.3 µM	> 100 µM
Cn1c(=O)c2c(nc(C[N+]3([O-])CCOCC3)n2C)n(C)c1=O	> 100 µM	> 100 µM	> 100 µM	> 100 µM	–	> 100 µM	–	–	> 100 µM	> 100 µM	> 100 µM	> 100 µM	> 100 µM	> 100 µM
C=C(C)[C@@H]1CC[C@@H](C)[C@](O)([C@@H]2C[C@@H]([C@H](COC(=O)c3ccccc3)OC(=O)c3ccccc3)OC2=O)C1	> 100 µM	> 100 µM	> 100 µM	> 100 µM	> 100 µM	> 100 µM	> 100 µM	> 100 µM	> 100 µM	> 100 µM	> 100 µM	> 100 µM	–	> 100 µM
CCCCSC1=N/C(=C\c2ccco2)C(=O)N1	> 100 µM	> 100 µM	> 100 µM	> 100 µM	> 100 µM	> 100 µM	> 100 µM	> 100 µM	> 100 µM	64.7 µM	> 100 µM	> 100 µM	> 100 µM	–
Cc1nccc2c1cnc1ccnn12	> 100 µM	> 100 µM	> 100 µM	> 100 µM	–	> 100 µM	–	> 100 µM	> 100 µM	> 100 µM	> 100 µM	> 100 µM	> 100 µM	> 100 µM
O=C1SC(c2ccc(Cl)cc2)(c2ccc(Cl)cc2)c2ccccc21	> 100 µM	55.3 µM	> 100 µM	> 100 µM	> 100 µM	> 100 µM	> 100 µM	> 100 µM	> 100 µM	> 100 µM	77.5 µM	> 100 µM	96.6 µM	–
O=C1C(Cl)C(c2ccc(Cl)cc2)N1n1cnc2ccccc2c1=O (configuration not stated)	> 100 µM	> 100 µM	> 100 µM	> 100 µM	–	> 100 µM	–	> 100 µM	> 100 µM	> 100 µM	> 100 µM	> 100 µM	> 100 µM	> 100 µM
COC(C/C(=C/CO[Si](C(C)C)(C(C)C)C(C)C)C(=O)Nc1ccccc1I)OC	> 100 µM	39.8 µM	> 100 µM	> 100 µM	46 µM	> 100 µM	> 100 µM	> 100 µM	43.4 µM	27.1 µM	31.1 µM	> 100 µM	–	> 100 µM
CO/C(=N\N=C\c1ccc(OC)cc1OC)c1ccncc1	> 10 µM	> 10 µM	–	> 10 µM	–	> 10 µM	> 10 µM	–	> 10 µM	> 10 µM	> 10 µM	> 10 µM	> 10 µM	> 10 µM
COC(=O)[C@H]1C=C[C@@H](C)n2c(=O)c3ccccc3c(=O)n21	> 100 µM	> 100 µM	> 100 µM	> 100 µM	–	> 100 µM	–	> 100 µM	> 100 µM	> 100 µM	> 100 µM	> 100 µM	> 100 µM	> 100 µM
CCOC(=O)C1=C(O)c2ccccc2C(=O)C1=O	> 100 µM	> 100 µM	> 100 µM	> 100 µM	–	> 100 µM	–	> 100 µM	> 100 µM	> 100 µM	> 100 µM	> 100 µM	> 100 µM	> 100 µM
COc1cc(C)cc2c1C(=O)C(Br)=CC2=O	6.96 µM	18.6 µM	35 µM	28.8 µM	30.2 µM	39.4 µM	74.9 µM	7.71 µM	–	8.36 µM	29.4 µM	33.3 µM	–	–
CC1=CC2(O)OC3(CC2=C(C)C)C(C)CCC13 (configuration not stated)	> 100 µM	> 100 µM	> 100 µM	> 100 µM	> 100 µM	> 100 µM	> 100 µM	> 100 µM	> 100 µM	> 100 µM	> 100 µM	–	> 100 µM	–
NC(=O)C12C3C4C1C1C2C3C41C(N)=O (configuration not stated)	> 100 µM	> 100 µM	> 100 µM	> 100 µM	–	> 100 µM	–	> 100 µM	> 100 µM	> 100 µM	> 100 µM	> 100 µM	> 100 µM	–
CCOC(=O)c1nc2ccc(Cl)cc2c2c1CCO2	> 100 µM	> 100 µM	> 100 µM	> 100 µM	–	> 100 µM	–	> 100 µM	–	> 100 µM	–	> 100 µM	> 100 µM	–
OCCSCc1cc2c(O)c(c1)Cc1cc(CSCCO)cc(c1O)Cc1cc(CSCCO)cc(c1O)Cc1cc(CSCCO)cc(c1O)C2	9.61 µM	13 µM	7.4 µM	17.1 µM	7.21 µM	16.7 µM	64.2 µM	13.9 µM	30.6 µM	18.3 µM	5.25 µM	13.1 µM	> 100 µM	–
O=c1oc2cc(O)ccc2c(O)c1C(c1ccccn1)c1c(O)c2ccc(O)cc2oc1=O	> 100 µM	> 100 µM	> 100 µM	> 100 µM	> 100 µM	> 100 µM	> 100 µM	–	> 100 µM	> 100 µM	> 100 µM	> 100 µM	–	> 100 µM
Cc1cn(CC2=NCC(C)(C)CN2)c(=O)[nH]c1=O	> 100 µM	> 100 µM	> 100 µM	–	> 100 µM	> 100 µM	> 100 µM	–	–	> 100 µM	> 100 µM	> 100 µM	> 100 µM	–
